ChEMBL document CHEMBL1671662, “In vitro activities of telavancin and six comparator agents against anaerobic bacterial isolates” (2009)
Values after ≈ are worked out from the molar mass of the structure shown.

Tests used:
Assay type in all cases: functional
Prevotella intermedia [1] = assay: Antibacterial activity against Prevotella intermedia by CLSI M11-A6 agar dilution method in presence of beta-lactamase inhibitor Sulbactam
Clostridium bolteae [2] = assay: Antibacterial activity against Clostridium bolteae by CLSI M11-A6 agar dilution method in presence of beta-lactamase inhibitor Sulbactam; conditions: Enterocloster bolteae
Clostridium spiroforme = assay: Antibacterial activity against Clostridium spiroforme by CLSI M11-A6 agar dilution method in presence of beta-lactamase inhibitor Sulbactam; conditions: Thomasclavelia spiroformis
Clostridium bolteae [3] = assay: Antibacterial activity against Clostridium bolteae by CLSI M11-A6 agar dilution method; conditions: Enterocloster bolteae
[4] = system: Enterocloster clostridioformis; assay: Antibacterial activity against Clostridium clostridioforme by CLSI M11-A6 agar dilution method
[Clostridium] innocuum = Antibacterial activity against Clostridium innocuum by CLSI M11-A6 agar dilution method
Thomasclavelia ramosa = assay: Antibacterial activity against Clostridium ramosum by CLSI M11-A6 agar dilution method
Clostridium beijerinckii = assay: Antibacterial activity against Clostridium beijerinckii by CLSI M11-A6 agar dilution method
[5] = system: Paraclostridium bifermentans; assay: Antibacterial activity against Clostridium bifermentans by CLSI M11-A6 agar dilution method
Clostridium glycolicum = assay: Antibacterial activity against Clostridium glycolicum by CLSI M11-A6 agar dilution method; conditions: Terrisporobacter glycolicus
Clostridium = assay: Antibacterial activity against Clostridium hypermegas by CLSI M11-A6 agar dilution method
Clostridium leptum = assay: Antibacterial activity against Clostridium leptum by CLSI M11-A6 agar dilution method
Clostridium scindens = assay: Antibacterial activity against Clostridium scindens by CLSI M11-A6 agar dilution method
Clostridium tertium = assay: Antibacterial activity against Clostridium tertium by CLSI M11-A6 agar dilution method
Actinomyces naeslundii = assay: Antibacterial activity against Actinomyces naeslundii by CLSI M11-A6 agar dilution method
Bifidobacterium bifidum = assay: Antibacterial activity against Bifidobacterium bifidum by CLSI M11-A6 agar dilution method
Bifidobacterium breve = assay: Antibacterial activity against Bifidobacterium breve by CLSI M11-A6 agar dilution method
Bifidobacterium dentium = assay: Antibacterial activity against Bifidobacterium dentium by CLSI M11-A6 agar dilution method
Eggerthella lenta = assay: Antibacterial activity against Eggerthella lenta by CLSI M11-A6 agar dilution method
Holdemania filiformis = assay: Antibacterial activity against Holdemania filiformis by CLSI M11-A6 agar dilution method
[6] = system: Propionibacterium propionicum; assay: Antibacterial activity against Propionibacterium propionicus by CLSI M11-A6 agar dilution method; conditions: Arachnia propionica
Ruminococcus gnavus = assay: Antibacterial activity against Ruminococcus gnavus by CLSI M11-A6 agar dilution method; conditions: Mediterraneibacter gnavus
[7] = system: Ruminococcus flavefaciens; assay: Antibacterial activity against Ruminococcus flavefaciens by CLSI M11-A6 agar dilution method
Blautia producta = assay: Antibacterial activity against Ruminococcus productus by CLSI M11-A6 agar dilution method
Ruminococcus sp. = assay: Antibacterial activity against Ruminococcus sp. by CLSI M11-A6 agar dilution method
Anaerococcus prevotii = assay: Antibacterial activity against Anaerococcus prevotii by CLSI M11-A6 agar dilution method
[8] = system: Peptostreptococcus anaerobius; assay: Antibacterial activity against Peptostreptococcus anaerobius by CLSI M11-A6 agar dilution method
Parvimonas micra = assay: Antibacterial activity against Peptostreptococcus micros by CLSI M11-A6 agar dilution method
[9] = system: Streptococcus constellatus; assay: Antibacterial activity against Streptococcus constellatus by CLSI M11-A6 agar dilution method
[10] = system: Parabacteroides distasonis; assay: Antibacterial activity against Parabacteroides distasonis by CLSI M11-A6 agar dilution method
Bacteroides fragilis = assay: Antibacterial activity against Bacteroides fragilis by CLSI M11-A6 agar dilution method
Bacteroides ovatus = assay: Antibacterial activity against Bacteroides ovatus by CLSI M11-A6 agar dilution method
Phocaeicola vulgatus = assay: Antibacterial activity against Bacteroides vulgatus by CLSI M11-A6 agar dilution method
Bilophila wadsworthia = assay: Antibacterial activity against Bilophila wadsworthia by CLSI M11-A6 agar dilution method
Fusobacterium mortiferum = assay: Antibacterial activity against Fusobacterium mortiferum by CLSI M11-A6 agar dilution method
Prevotella denticola = assay: Antibacterial activity against Prevotella P denticola by CLSI M11-A6 agar dilution method
Prevotella disiens = assay: Antibacterial activity against Prevotella P disiens by CLSI M11-A6 agar dilution method
Prevotella intermedia [11] = assay: Antibacterial activity against Prevotella intermedia by CLSI M11-A6 agar dilution method
Hoylesella loescheii = assay: Antibacterial activity against Prevotella loescheii by CLSI M11-A6 agar dilution method
[12] = system: Prevotella melaninogenica; assay: Antibacterial activity against Prevotella melaninogenica by CLSI M11-A6 agar dilution method
Hoylesella oralis = assay: Antibacterial activity against Prevotella oralis by CLSI M11-A6 agar dilution method
[13] = system: Sutterella wadsworthensis; assay: Antibacterial activity against Sutterella wadsworthensis by CLSI M11-A6 agar dilution method

For `CC1(C)S[C@@H]2[C@H](NC(=O)[C@H](N)c3ccccc3)C(=O)N2[C@H]1C(=O)O` [AMPICILLIN], the MIC50 (Prevotella intermedia [1]) was no more than 0.12 µg/mL, the MIC90 (Prevotella intermedia [1]) was 2 µg/mL and the MIC50 (Clostridium bolteae [2]) was 8 µg/mL. It also gave an MIC90 (Clostridium bolteae [2]) of 16 µg/mL, an MIC50 (Clostridium spiroforme) of 0.25 µg/mL and an MIC90 (Clostridium spiroforme) of 1 µg/mL.
Work on `CN[C@H](CC(C)C)C(=O)N[C@H]1C(=O)N[C@@H](CC(N)=O)C(=O)N[C@H]2C(=O)N[C@H]3C(=O)N[C@H](C(=O)N[C@H](C(=O)O)c4cc(O)cc(O)c4-c4cc3ccc4O)[C@H](O)c3ccc(c(Cl)c3)Oc3cc2cc(c3O[C@@H]2O[C@H](CO)[C@@H](O)[C@H](O)[C@H]2O[C@H]2C[C@](C)(N)[C@H](O)[C@H](C)O2)Oc2ccc(cc2Cl)[C@H]1O` [VANCOMYCIN] yielded an MIC50 (Clostridium bolteae [3]) of 2 µg/mL (≈ 1.38 µM), an MIC90 (Clostridium bolteae [3]) of 2 µg/mL (≈ 1.38 µM) and an MIC50 [4] of 2 µg/mL (≈ 1.38 µM). It also gave an MIC90 [4] of 2 µg/mL (≈ 1.38 µM), an MIC ([Clostridium] innocuum) of 16 µg/mL (≈ 11 µM) and an MIC50 ([Clostridium] innocuum) of 16 µg/mL (≈ 11 µM). For the same compound, the MIC90 ([Clostridium] innocuum) was 16 µg/mL (≈ 11 µM), the MIC50 (Thomasclavelia ramosa) was 8 µg/mL (≈ 5.52 µM) and the MIC90 (Thomasclavelia ramosa) was 8 µg/mL (≈ 5.52 µM). It also gave an MIC50 (Clostridium beijerinckii) of 1 µg/mL (≈ 0.69 µM), an MIC90 (Clostridium beijerinckii) of 4 µg/mL (≈ 2.76 µM) and an MIC50 [5] of 1 µg/mL (≈ 0.69 µM). For the same compound, the MIC90 [5] was 4 µg/mL (≈ 2.76 µM), the MIC50 (Clostridium glycolicum) was 1 µg/mL (≈ 0.69 µM) and the MIC90 (Clostridium glycolicum) was 4 µg/mL (≈ 2.76 µM). The MIC50 (Clostridium) was 1 µg/mL (≈ 0.69 µM), the MIC90 (Clostridium) was 4 µg/mL (≈ 2.76 µM) and the MIC50 (Clostridium leptum) was 1 µg/mL (≈ 0.69 µM). For the same compound, the MIC90 (Clostridium leptum) was 4 µg/mL (≈ 2.76 µM), the MIC50 (Clostridium scindens) was 1 µg/mL (≈ 0.69 µM) and the MIC90 (Clostridium scindens) was 4 µg/mL (≈ 2.76 µM). For the same compound, the MIC50 (Clostridium tertium) was 1 µg/mL (≈ 0.69 µM), the MIC90 (Clostridium tertium) was 4 µg/mL (≈ 2.76 µM) and the MIC50 (Actinomyces naeslundii) was 0.5 µg/mL (≈ 0.345 µM). The MIC90 (Actinomyces naeslundii) was 4 µg/mL (≈ 2.76 µM), the MIC50 (Bifidobacterium bifidum) was 0.5 µg/mL (≈ 0.345 µM) and the MIC90 (Bifidobacterium bifidum) was 4 µg/mL (≈ 2.76 µM). The MIC50 (Bifidobacterium breve) was 0.5 µg/mL (≈ 0.345 µM), the MIC90 (Bifidobacterium breve) was 4 µg/mL (≈ 2.76 µM) and the MIC50 (Bifidobacterium dentium) was 0.5 µg/mL (≈ 0.345 µM). It also gave an MIC90 (Bifidobacterium dentium) of 4 µg/mL (≈ 2.76 µM), an MIC50 (Eggerthella lenta) of 0.5 µg/mL (≈ 0.345 µM) and an MIC90 (Eggerthella lenta) of 4 µg/mL (≈ 2.76 µM). The MIC50 (Holdemania filiformis) was 0.5 µg/mL (≈ 0.345 µM), the MIC90 (Holdemania filiformis) was 4 µg/mL (≈ 2.76 µM) and the MIC50 [6] was 0.5 µg/mL (≈ 0.345 µM). It also gave an MIC90 [6] of 4 µg/mL (≈ 2.76 µM), an MIC50 (Ruminococcus gnavus) of 0.5 µg/mL (≈ 0.345 µM) and an MIC90 (Ruminococcus gnavus) of 1 µg/mL (≈ 0.69 µM). For the same compound, the MIC50 [7] was 0.5 µg/mL (≈ 0.345 µM), the MIC90 [7] was 1 µg/mL (≈ 0.69 µM) and the MIC50 (Blautia producta) was 0.5 µg/mL (≈ 0.345 µM). For the same compound, the MIC90 (Blautia producta) was 1 µg/mL (≈ 0.69 µM), the MIC50 (Ruminococcus sp.) was 0.5 µg/mL (≈ 0.345 µM) and the MIC90 (Ruminococcus sp.) was 1 µg/mL (≈ 0.69 µM). It also gave an MIC50 (Anaerococcus prevotii) of 0.5 µg/mL (≈ 0.345 µM), an MIC90 (Anaerococcus prevotii) of 1 µg/mL (≈ 0.69 µM) and an MIC50 [8] of 0.5 µg/mL (≈ 0.345 µM). It also gave an MIC90 [8] of 1 µg/mL (≈ 0.69 µM), an MIC50 (Parvimonas micra) of 0.5 µg/mL (≈ 0.345 µM) and an MIC90 (Parvimonas micra) of 1 µg/mL (≈ 0.69 µM). For the same compound, the MIC50 [9] was 2 µg/mL (≈ 1.38 µM), the MIC90 [9] was 2 µg/mL (≈ 1.38 µM) and the MIC50 [10] was 128 µg/mL (≈ 88.3 µM). For the same compound, the MIC90 [10] was 128 µg/mL (≈ 88.3 µM), the MIC50 (Bacteroides fragilis) was 64 µg/mL (≈ 44.2 µM) and the MIC90 (Bacteroides fragilis) was 64 µg/mL (≈ 44.2 µM). For the same compound, the MIC50 (Bacteroides ovatus) was 128 µg/mL (≈ 88.3 µM), the MIC90 (Bacteroides ovatus) was 128 µg/mL (≈ 88.3 µM) and the MIC50 (Phocaeicola vulgatus) was 64 µg/mL (≈ 44.2 µM). The MIC90 (Phocaeicola vulgatus) was 128 µg/mL (≈ 88.3 µM), the MIC (Bilophila wadsworthia) was greater than 128 µg/mL and the MIC50 (Bilophila wadsworthia) was greater than 128 µg/mL. For the same compound, the MIC90 (Bilophila wadsworthia) was greater than 128 µg/mL, the MIC (Fusobacterium mortiferum) was greater than 128 µg/mL and the MIC50 (Fusobacterium mortiferum) was greater than 128 µg/mL. The MIC90 (Fusobacterium mortiferum) was greater than 128 µg/mL, the MIC50 (Prevotella denticola) was 32 µg/mL (≈ 22.1 µM) and the MIC90 (Prevotella denticola) was greater than 128 µg/mL. For the same compound, the MIC50 (Prevotella disiens) was 32 µg/mL (≈ 22.1 µM), the MIC90 (Prevotella disiens) was greater than 128 µg/mL and the MIC50 (Prevotella intermedia [11]) was 32 µg/mL (≈ 22.1 µM). The MIC90 (Prevotella intermedia [11]) was greater than 128 µg/mL, the MIC50 (Hoylesella loescheii) was 32 µg/mL (≈ 22.1 µM) and the MIC90 (Hoylesella loescheii) was greater than 128 µg/mL. The MIC50 [12] was 32 µg/mL (≈ 22.1 µM), the MIC90 [12] was greater than 128 µg/mL and the MIC50 (Hoylesella oralis) was 32 µg/mL (≈ 22.1 µM). It also gave an MIC90 (Hoylesella oralis) greater than 128 µg/mL, an MIC [13] greater than 128 µg/mL and an MIC50 [13] greater than 128 µg/mL. For the same compound, the MIC90 [13] was greater than 128 µg/mL.
